How the values were obtained:
[1] = system: SARS-CoV-2 clinical isolate (2019-nCoV/USA-WA1/2020); assay: Anti-viral activity against SARS-CoV-2 in human bronchial epithelial cell (HBEC, EpiAirway) air-liquid-interface cultures, viral titer by TCID50; format: cell-based
[2] = system: COVID-19 pneumonia (SARS-CoV-2); assay: Randomized, double-blind, placebo-controlled Phase 2a study of opaganib in COVID-19 pneumonia; format: in vivo, human
From the text: This was a phase 2a, proof of concept, multi-center randomized double-blind, parallel arm, placebo-controlled study. After informed consent was obtained, patients entered a screening phase for no more than 3 days, to determine eligibility. […] Treatment assignments remained blinded to the patient, investigator and hospital staff, as well as the sponsor. As there was no consensus for a definitive treatment specifically targeting the SARS-CoV-2 virus causing COVID-19 (Wilson, 2020), standard of care referred to regional, institutional or physician directed therapies, that were implemented during the COVID-19 pandemic.
Study drug was to be administered every day for 14 days (Day 1 to Day 14), unless the patient had been discharged from the hospital without requiring supplemental oxygen, in which case study drug would only be administered to Day 10.
Two patients were randomized in each group but not treated. […] Two patients in the opaganib arm experienced adverse events such that study drug was terminated, while one placebo patient was terminated due to an adverse event.
The primary efficacy endpoint calculated for each patient the area under the curve of the supplemental oxygen requirement through day 14, using the trapezoidal rule after subtracting the baseline oxygen requirement at each day. Days where no supplementary oxygen was needed, were recorded as 0. If several values of oxygen requirement (L/min) are recorded in a certain day, for the primary analysis the highest of these values were taken. In the primary analysis, for patients who die before Day 14, or require intubation and mechanical ventilation, missing daily values were assigned the maximal supplemental oxygen flow requirement of 8 L/min. For patients discharged from hospital on supplemental oxygen prior to Day 14, if no values were collected by the site after discharge, the oxygen requirement (L/min) on the day of discharge were to be assigned thereafter for each day to Day 14.
Supplemental oxygen requirement up to Day 14 was collected even if a patient discontinued treatment prior to Day 14 but continued in the study to Day 14. Further, it was assumed that loss to follow up such that vital status up to Day 14 were missing is unlikely. Therefore, the primary analysis assumed that in case that all supplemental oxygen values are missing after treatment discontinuation, the last value is carried forward—until Day 14, or death, if occurred before. A sensitivity analysis to the above missing data handling approach was performed using an AUC summary statistics approach, in which groups AUC is calculated from the estimated parameters of a Repeated-Measures model.
Within the mITT cohort, two subjects withdrew their consent due to grade 1 gastrointestinal AEs.

[3] = Physical description of opaganib drug substance (solubility, hygroscopicity); format: physicochemical
[4] = system: human bronchial epithelial cells (HBEC); conditions: highest concentration tested, 11.25 μg/ml
[5] = system: COVID-19 infection (SARS-CoV-2); assay: Pilot / compassionate use study of opaganib in patients hospitalized with COVID-19 pneumonia; format: in vivo, human
Description: Patients entered a screening period of up to 1 week. Eligible patients entered the treatment period for up to 2 weeks. All participants were followed for 2 weeks after their last dose of study drug, at the end of the 2 week treatment period, or once they had 2 consecutive daily negative viral swabs for the COVID-19 virus or at after premature drug discontinuation prior to Day 14. The maximum duration of study participation was 35 days […].
Each dose is administered with food or 15-30 minutes after tube-feeding, where appropriate. […] These patients had moderate to severe COVID-19-related pneumonia with hypoxia on supplemental oxygen.
Five patients were included in the analysis, and for comparison purposes, we used a control group with same-sex, same-severity patients (baseline characteristics). Univariate comparisons between the groups were performed with chi-square test for categorical variables and t-test or MannWhitney U-test for continuous variables, as appropriate. Time variables were compared with Cox proportional hazard regression, adjusted for age and background illnesses. CRP and lymphocyte changes were compared utilizing a repeated measures general linear model with a Bonferroni correction for multiple comparison.

[6] = system: ARDS induced thrombosis; assay: Rat venous stasis (Wessler) model after LPS-induced lung injury (ARDS induced thrombosis); format: in vivo, Sprague-Dawley rats; conditions: 250 mg/kg oral gavage 3, 24, 48, 72 h post LPS instillation; rat venous stasis 30 min
From the text: This study assessed the efficacy of ABC294640 to reduce the incidence of adverse thromboembolic events in situ in acute respiratory distress syndrome (ARDS) conditions using a rat venous stasis model. This assay is designed to measure thrombotic risks following LPS-induced lung injury. LPS-induced lung injury is one of the most commonly used rodent models for ARDS and was described to mimic the neutrophilic inflammatory response observed in ARDS patients. The mechanism of LPS-induced ARDS is based on damage to endothelial cells and a systemic inflammatory response. […]
Sprague-Dawley rats (male) weighing between 275 and 400 g were used for this study. […] The body weight was recorded before the instillation and 24, 48 and 72 hours post-instillation.
In this study, ARDS was induced by intratracheal instillation of LPS. […] The segment was then excised and its content scored. […]
• 1. Prior LPS or saline instillation, the functional respiratory parameters of all rat was assessed by whole-body plethysmography and SpO2 was evaluated on conscious rat with a collar probe pulse oximeter. […] The respiratory rate, the Penh and the inspiratory/expiratory time measurements was analyzed. • 2. […]
• 5. Rats were evaluated periodically to ensure animal well-being (general behavior and daily body weight). • 6. […] SpO2 and whole-body plethysmography were also evaluated 24, 48 and 72 hours post-instillation. • 8. […]

[7] = of 6 moderate-to-severe patients treated, opaganib plus standard-of-care

Cl.O=C(NCc1ccncc1)C12CC3CC(C1)CC(c1ccc(Cl)cc1)(C3)C2 [opaganib, 3-(4-chlorophenyl)-adamantane-1-carboxylic acid (pyridin-4-ylmethyl) amide, hydrochloride salt]
concentration at which complete inhibition of infectious virus production starts ([1]; SARS-CoV-2-infected HBEC, 3 days incubation): 1 µg/mL
infectious virus production ([1]; SARS-CoV-2-infected HBEC, 3 days incubation, 0.05 to 11.25 μg/ml): dose-dependent reduction
inhibition at 0.05 µg/mL ([1]; Severe acute respiratory syndrome coronavirus 2, Epithelial cell, read-out: inhibition of infectious virus production): > 90%
proportion of patients reaching room air and no longer requiring oxygen support by Day 14 ([2]; opaganib 500 mg Q12 h + standard of care, control arm 22.2%): 52.6%
reduction from baseline of the medial total oxygen requirement (AUC) over 14 days ([2]; opaganib 500 mg Q12 h + standard of care, control arm 46.7%): 68.0%
proportion of patients discharged by Day 14 ([2]; opaganib 500 mg Q12 h + standard of care, control arm 55.6%): 73.7%
proportion of patients with 50% reduction in supplemental oxygen by day 14 ([2]; opaganib 500 mg Q12 h + standard of care, control arm 66.7%): 89.5%
patients with adverse events such that study drug was terminated ([2]; opaganib arm, one in placebo arm): Two
patients with serious adverse events (SAEs) vs placebo arm ([2]; opaganib treatment arm compared with placebo arm): fewer patients suffered from serious adverse events
safety (top-line) ([2]; vs placebo arm): safe, with no material safety differences
solubility in water and ethyl acetate [3]: practically insoluble
hygroscopicity ([3]; solid): non-hygroscopic
cell viability [4]: remained viable
HR for time to weaning from HFNC, cases vs. controls ([5]; Cox regression, 95% CI: 0.07-1.7, p=0.2): 0.3
HR for time to ambient air, cases vs. controls ([5]; Cox regression, 95% CI: 0.15-1.5): 0.4
Clinical Assessment ([5]; Patient 1 (14 d), started as severe on maximal OptiFlow Apr. 3, 2020, RA = room air): Apr. 3, 2020; RA by 16/4. As of 22/4, one negative
Lymphocytes, most recent ([5]; Patient 1 (14 d on opaganib), baseline 1.6, Apr. 17, 2020): 2.8 (Apr. 17, 2020) 10^3/mm^3
CRP, most recent ([5]; Patient 1 (14 d on opaganib), baseline 15.1, Apr. 17, 2020): 1 (Apr. 17, 2020) mg/L
Clinical Assessment ([5]; Patient 2 (14 d), started as severe+, planning for intubation Apr. 7, 2020, RA = room air, D/C = discharged): Apr. 7, 2020; RA by Apr. 20, 2020, D/C on Apr. 22, 2020
Lymphocytes, most recent ([5]; Patient 2 (14 d on opaganib), baseline 1.1, Apr. 17, 2020): 2.1 (Apr. 17, 2020) 10^3/mm^3
CRP, most recent ([5]; Patient 2 (14 d on opaganib), baseline 14.2, Apr. 17, 2020): 4.8 (Apr. 17, 2020) mg/L
Clinical Assessment ([5]; Patient 3 (7 d), moderate-severe, on OptiFlow Apr. 13, 2020, D/C = discharged): Apr. 7, 200, D/C on Apr. 19, 2020
Lymphocytes, most recent ([5]; Patient 3 (7 d on opaganib), baseline 0.9, Apr. 17, 2020): 1.2 (Apr. 17, 2020) 10^3/mm^3
CRP, most recent ([5]; Patient 3 (7 d on opaganib), baseline 10.7, Apr. 17, 2020): 1.7 (Apr. 17, 2020) mg/L
Clinical Assessment ([5]; Patient 4 (11 d), started severe+ 70% OptiFlow on Apr. 13, 2020, RA = room air): RA on Apr. 22, 2020
Lymphocytes, most recent ([5]; Patient 4 (11 d on opaganib), baseline 1.2, Apr. 22, 2020): 1 (Apr. 22, 2020) 10^3/mm^3
CRP, most recent ([5]; Patient 4 (11 d on opaganib), baseline 24.8, Apr. 22, 2020): 17.4 (Apr. 22, 2020) mg/L
Clinical Assessment ([5]; Patient 5 (2 d), started moderate on Apr. 13, 2020, nasal cannula, D/C = discharged, RA = room air): opaganib; D/C on Apr. 14, 2020 on RA
Lymphocytes, most recent ([5]; Patient 6 (5 d on opaganib), baseline 1.35, Apr. 24, 2020): 1.96 (Apr. 24, 2020) 10^3/mm^3
CRP, most recent ([5]; Patient 6 (5 d on opaganib), baseline 12.2, Apr. 24, 2020): 6.8 (Apr. 24, 2020) mg/L
adverse event leading to discontinuation ([5]; Patient 7, also on HCQ and azithromycin, may or may not be related to opaganib, all 3 meds stopped): Diarrhea the next day, all 3 meds were stopped, followed by worsening SOB, on 75% OptiFlow.
clinical improvement ([5]; all 6 moderate to-severe patients (patient #7 excepted)): improved significantly
C-Reactive Protein (CRP) change ([5]; all six patients): reduction in C-Reactive Protein (CRP)
time to ambient air ([5]; cases, controls 14.5 days): 13 days
median time to weaning from high-flow nasal cannula (HFNC) ([5]; cases, controls 15 days, p=0.2): 10 days
cases requiring mechanical ventilation ([5]; compared with 33% of controls): none of the cases required mechanical ventilation
increase in lymphocyte count vs matched control group ([5]; five patients analysed vs same-sex, same-severity controls): significantly faster increase in lymphocyte count
number of patients back to breathing room air [5, 7]: 5 patients
number of patients discharged from hospital [5, 7]: 3 patients
safety and tolerability ([5]; small cohort of severe COVID-19 patients): safe and well tolerated

O=C(NCc1ccncc1)C12CC3CC(C1)CC(c1ccc(Cl)cc1)(C3)C2 [ABC294640, 3-(4-chlorophenyl)-adamantane-1-carboxylic acid (pyridin-4-ylmethyl)amide]
thrombosis (blood clot length, weight and total thrombus score) [6]: reduction of thrombosis
